Source: ChEMBL document CHEMBL1154582, “Thonningianins A and B, new antioxidants from the African medicinal herb Thonningia sanguinea” (J Nat Prod, 2000)
Active and inactive are the calls of the source. No cut-off for these calls is given here.

Legend:
Assay type in all cases: functional
[1] = DPPH radical scavenging activity at 25 uM by ESR spectra
[2] = DPPH radical scavenging activity by ESR spectra
[3] = DPPH radical scavenging activity at 34.5 uM by ESR spectra

Compound	Activity [1]	IC50 [2]	Activity [3]
O=C(O[C@@H]1[C@@H](O)[C@H](Oc2cc(O)c(C(=O)CCc3ccccc3)c(O)c2)O[C@@H]2COC(=O)c3cc(O)c(O)c(O)c3-c3c(cc(O)c(O)c3O)C(=O)O[C@@H]12)c1cc(O)c(O)c(O)c1 [THONNINGIANIN A]	Active	8 µM	–
O=C1OC[C@H]2O[C@@H](Oc3cc(O)c(C(=O)CCc4ccccc4)c(O)c3)[C@H](O)[C@@H](O)[C@@H]2OC(=O)c2cc(O)c(O)c(O)c2-c2c1cc(O)c(O)c2O [THONNINGIANIN B]	–	21 µM	90%
